Results as given in US20090062369A1, “USE OF SECRETORY PHOSPHOLIPASE A2 (SPLA2) INHIBITORS TO DECREASE SPLA2 LEVELS” (priority 2007, published 2009).

Tested on: serum sPLA2
Test: Effect of twice-a-day oral A-002 on serum sPLA2 levels in subjects with stable coronary artery disease (Example 6)
Type: in vivo, human
Description: The protocol for preparing standard curve, test, and quality control samples for use in the assay disclosed herein is set forth in Example 5. Samples are prepared according to this protocol, then loaded in duplicate onto a plate (Cayman catalog no. 485002 or equivalent) that has been pre-coated with a monoclonal sPLA2 antibody (“capture antibody”) that specifically binds sPLA2. In certain embodiments, the capture antibody may interact with a specific form of sPLA2, such as for example sPLA2 type IIA.
sPLA2 acetylcholinesterase:Fab′ conjugate (AChE:Fab′) (“conjugate”) (Cayman catalog no. 485000 or equivalent) is reconstituted in EIA buffer (Cayman catalog no. 400060 or equivalent). Cayman EIA buffer is 1M phosphate, pH 7.0, 1% BSA, 4M NaCl, 10 mM EDTA, and 0.1% sodium azide. Reconstituted conjugate is added to each well of the plate. The conjugate binds a different sPLA2 epitope than the capture antibody, allowing the capture antibody and the conjugate to form a “sandwich” that is immobilized on the plate. Excess reagents are washed away, and the plate is covered and incubated overnight at 2-8° C.
Prior to development, the wells are washed five to six times with wash buffer (Cayman catalog no. 400062 or equivalent). To develop the plate, Ellman's Reagent (Cayman catalog no. 400050 or equivalent) is reconstituted in water and added to each well according to manufacturer instructions. The reconstituted Ellman's Reagent must be used the same day it is prepared because it is unstable. Ellman's Reagent contains an AChE substrate. Specifically, Ellman's Reagent contains acetylthiocholine and 5,5′-dithio-bis-(2-nitrobenzoic acid). Hydrolysis of acetylthiocholine by acetylcholinesterase produces thiocholine, which reacts with 5,5′-dithio-bis-(2-nitrobenzoic acid) to produce 5-thio-2-nitrobenzoic acid. 5-thio-2-nitrobenzoic acid has a strong absorbance at 412 nm. The intensity of absorbance at this wavelength is directly proportional to the concentration of bound conjugate, which is in turn is directly proportional to the concentration of sPLA2 present (Absorbance a [AChE:Fab′ conjugate] α [sPLA2]). During the development step, the plate is shaken, preferably in the dark. In certain embodiments the development time for the assay is 0.5 to 3 hours, preferably 1 to 1.5 hours. At the end of the development period, the high sPLA2 standards should have greater yellow color development than the zero standards. Absorbance of each well is measured at 400-420 nm using a micro-well plate reader. In certain embodiments, absorbance is measured at about 405 nm.
Absorbance readings for duplicate wells are averaged, and the relative standard deviation and % CV are calculated. Standard curve data are used to generate a four parameter curve, and quality control and test samples are measured against the appropriate standard curve (i.e., the standard curve with the same serum content). In order for a test to be considered valid, variation between duplicate wells should be no more than about 25%, and negative controls (blanks) for each standard curve should have a mean absorbance of less than about 0.3.
The method disclosed herein for measuring sPLA2 levels in serum was utilized to determine the effect of administering certain sPLA2 inhibitors on sPLA2 levels in 84 human subjects. The subjects included 24 subjects with diabetes, 32 subjects with metabolic syndrome, and 75 subjects receiving statin treatment. Subjects were administered the sPLA2 inhibitor A-002, a prodrug form of A-001, twice a day at varying dosages from 50 to 500 mg. The structures of A-002and A-001 are set forth below. At two weeks and four weeks after the first administration, sPLA2 levels were measured and compared to pre-administration baseline levels.
84 subjects with stable coronary artery disease were randomized to receive placebo or A-002 via oral administration twice a day over a four week administration period. […]

[1] = 50 mg, diabetes subgroup of ITT population
[2] = 50 mg, non-diabetes subgroup of ITT population
[3] = 50 mg, statin subgroup of ITT population
[4] = 100 mg, diabetes subgroup of ITT population
[5] = 100 mg, non-diabetes subgroup of ITT population
[6] = 100 mg, statin subgroup of ITT population

Structure (SMILES): CCc1c(C(=O)C(N)=O)c2c(OCC(=O)OC)cccc2n1Cc1ccccc1 [A-002, [[3-(2-Amino-1,2-dioxoethyl)-2-ethyl-1-(phenylmethyl)-1H-indol-4-yl]oxy]acetic acid methyl ester]
- sPLA2 Change from baseline at week 2, Mean (50 mg, ITT population): -2.74 ng/mL
- sPLA2 Change from baseline at week 2, Median (50 mg, ITT population): -2.60 ng/mL
- sPLA2 Change from baseline at week 2, Range (50 mg, ITT population): -5.30 to -0.60 ng/mL
- sPLA2 Change from baseline at week 4, Mean (50 mg, ITT population): -2.50 ng/mL
- sPLA2 Change from baseline at week 4, Median (50 mg, ITT population): -2.15 ng/mL
- sPLA2 Change from baseline at week 4, Range (50 mg, ITT population): -6.40 to -0.60 ng/mL
- sPLA2 level, Baseline, Mean (50 mg, ITT population): 3.24 ng/mL
- sPLA2 level, Baseline, Median (50 mg, ITT population): 2.65 ng/mL
- sPLA2 level, Baseline, Range (50 mg, ITT population): 0.80 to 8.80 ng/mL
- sPLA2 level, Week 2, Mean (50 mg, ITT population): 0.89 ng/mL
- sPLA2 level, Week 2, Median (50 mg, ITT population): 0.45 ng/mL
- sPLA2 level, Week 2, Range (50 mg, ITT population): 0.20 to 4.00 ng/mL
- sPLA2 level, Week 4, Mean (50 mg, ITT population): 0.85 ng/mL
- sPLA2 level, Week 4, Median (50 mg, ITT population): 0.70 ng/mL
- sPLA2 level, Week 4, Range (50 mg, ITT population): 0.10 to 2.40 ng/mL
- sPLA2 Change from baseline at week 2, Mean [1]: -2.05 ng/mL
- sPLA2 Change from baseline at week 2, Median [1]: -2.45 ng/mL
- sPLA2 Change from baseline at week 2, Range [1]: -2.70 to -0.60 ng/mL
- sPLA2 Change from baseline at week 4, Mean [1]: -1.76 ng/mL
- sPLA2 Change from baseline at week 4, Median [1]: -1.50 ng/mL
- sPLA2 Change from baseline at week 4, Range [1]: -3.20 to -0.60 ng/mL
- sPLA2 level, Baseline, Mean [1]: 2.45 ng/mL
- sPLA2 level, Baseline, Median [1]: 2.65 ng/mL
- sPLA2 level, Baseline, Range [1]: 0.80 to 3.80 ng/mL
- sPLA2 level, Week 2, Mean [1]: 0.55 ng/mL
- sPLA2 level, Week 2, Median [1]: 0.45 ng/mL
- sPLA2 level, Week 2, Range [1]: 0.20 to 1.10 ng/mL
- sPLA2 level, Week 4, Mean [1]: 0.66 ng/mL
- sPLA2 level, Week 4, Median [1]: 0.60 ng/mL
- sPLA2 level, Week 4, Range [1]: 0.20 to 1.20 ng/mL
- sPLA2 Change from baseline at week 2, Mean [2]: -3.09 ng/mL
- sPLA2 Change from baseline at week 2, Median [2]: -3.05 ng/mL
- sPLA2 Change from baseline at week 2, Range [2]: -5.30 to -0.70 ng/mL
- sPLA2 Change from baseline at week 4, Mean [2]: -3.03 ng/mL
- sPLA2 Change from baseline at week 4, Median [2]: -2.80 ng/mL
- sPLA2 Change from baseline at week 4, Range [2]: -6.40 to -0.80 ng/mL
- sPLA2 level, Baseline, Mean [2]: 3.72 ng/mL
- sPLA2 level, Baseline, Median [2]: 3.20 ng/mL
- sPLA2 level, Baseline, Range [2]: 1.30 to 8.80 ng/mL
- sPLA2 level, Week 2, Mean [2]: 1.06 ng/mL
- sPLA2 level, Week 2, Median [2]: 0.06 ng/mL
- sPLA2 level, Week 2, Range [2]: 0.20 to 4.00 ng/mL
- sPLA2 level, Week 4, Mean [2]: 0.96 ng/mL
- sPLA2 level, Week 4, Median [2]: 0.75 ng/mL
- sPLA2 level, Week 4, Range [2]: 0.10 to 2.40 ng/mL
- sPLA2 Change from baseline at week 2, Mean [3]: -2.74 ng/mL
- sPLA2 Change from baseline at week 2, Median [3]: -2.60 ng/mL
- sPLA2 Change from baseline at week 2, Range [3]: -5.30 to -0.60 ng/mL
- sPLA2 Change from baseline at week 4, Mean [3]: -2.50 ng/mL
- sPLA2 Change from baseline at week 4, Median [3]: -2.15 ng/mL
- sPLA2 Change from baseline at week 4, Range [3]: -6.40 to -0.60 ng/mL
- sPLA2 level, Baseline, Mean [3]: 3.34 ng/mL
- sPLA2 level, Baseline, Median [3]: 2.70 ng/mL
- sPLA2 level, Baseline, Range [3]: 0.80 to 8.80 ng/mL
- sPLA2 level, Week 2, Mean [3]: 0.89 ng/mL
- sPLA2 level, Week 2, Median [3]: 0.45 ng/mL
- sPLA2 level, Week 2, Range [3]: 0.20 to 4.00 ng/mL
- sPLA2 level, Week 4, Mean [3]: 0.85 ng/mL
- sPLA2 level, Week 4, Median [3]: 0.70 ng/mL
- sPLA2 level, Week 4, Range [3]: 0.10 to 2.40 ng/mL
- sPLA2 Change from baseline at week 2, Mean (100 mg, ITT population): -1.81 ng/mL
- sPLA2 Change from baseline at week 2, Median (100 mg, ITT population): -1.85 ng/mL
- sPLA2 Change from baseline at week 2, Range (100 mg, ITT population): −3.70 to +2.85 ng/ml
- sPLA2 Change from baseline at week 4, Mean (100 mg, ITT population): -2.55 ng/mL
- sPLA2 Change from baseline at week 4, Median (100 mg, ITT population): -2.50 ng/mL
- sPLA2 Change from baseline at week 4, Range (100 mg, ITT population): -5.70 to 0.00 ng/mL
- sPLA2 level, Baseline, Mean (100 mg, ITT population): 2.86 ng/mL
- sPLA2 level, Baseline, Median (100 mg, ITT population): 2.95 ng/mL
- sPLA2 level, Baseline, Range (100 mg, ITT population): 0.05 to 6.00 ng/mL
- sPLA2 level, Week 2, Mean (100 mg, ITT population): 0.68 ng/mL
- sPLA2 level, Week 2, Median (100 mg, ITT population): 0.45 ng/mL
- sPLA2 level, Week 2, Range (100 mg, ITT population): 0.05 to 2.90 ng/mL
- sPLA2 level, Week 4, Mean (100 mg, ITT population): 0.49 ng/mL
- sPLA2 level, Week 4, Median (100 mg, ITT population): 0.50 ng/mL
- sPLA2 level, Week 4, Range (100 mg, ITT population): 0.05 to 1.10 ng/mL
- sPLA2 Change from baseline at week 2, Mean [4]: -1.11 ng/mL
- sPLA2 Change from baseline at week 2, Median [4]: -1.80 ng/mL
- sPLA2 Change from baseline at week 2, Range [4]: −3.00 to +2.85 ng/ml
- sPLA2 Change from baseline at week 4, Mean [4]: -2.30 ng/mL
- sPLA2 Change from baseline at week 4, Median [4]: -1.80 ng/mL
- sPLA2 Change from baseline at week 4, Range [4]: -5.70 to 0.00 ng/mL
- sPLA2 level, Baseline, Mean [4]: 2.78 ng/mL
- sPLA2 level, Baseline, Median [4]: 2.50 ng/mL
- sPLA2 level, Baseline, Range [4]: 0.05 to 6.00 ng/mL
- sPLA2 level, Week 2, Mean [4]: 1.02 ng/mL
- sPLA2 level, Week 2, Median [4]: 0.50 ng/mL
- sPLA2 level, Week 2, Range [4]: 0.40 to 2.90 ng/mL
- sPLA2 level, Week 4, Mean [4]: 0.48 ng/mL
- sPLA2 level, Week 4, Median [4]: 0.40 ng/mL
- sPLA2 level, Week 4, Range [4]: 0.05 to 1.10 ng/mL
- sPLA2 Change from baseline at week 2, Mean [5]: -2.21 ng/mL
- sPLA2 Change from baseline at week 2, Median [5]: -2.40 ng/mL
- sPLA2 Change from baseline at week 2, Range [5]: -3.70 to -0.40 ng/mL
- sPLA2 Change from baseline at week 4, Mean [5]: -2.76 ng/mL
- sPLA2 Change from baseline at week 4, Median [5]: -2.60 ng/mL
- sPLA2 Change from baseline at week 4, Range [5]: -4.40 to -0.90 ng/mL
- sPLA2 level, Baseline, Mean [5]: 2.91 ng/mL
- sPLA2 level, Baseline, Median [5]: 3.20 ng/mL
- sPLA2 level, Baseline, Range [5]: 1.00 to 4.90 ng/mL
- sPLA2 level, Week 2, Mean [5]: 0.48 ng/mL
- sPLA2 level, Week 2, Median [5]: 0.30 ng/mL
- sPLA2 level, Week 2, Range [5]: 0.05 to 1.20 ng/mL
- sPLA2 level, Week 4, Mean [5]: 0.51 ng/mL
- sPLA2 level, Week 4, Median [5]: 0.60 ng/mL
- sPLA2 level, Week 4, Range [5]: 0.05 to 1.00 ng/mL
- sPLA2 Change from baseline at week 2, Mean [6]: -1.81 ng/mL
- sPLA2 Change from baseline at week 2, Median [6]: -1.80 ng/mL
- sPLA2 Change from baseline at week 2, Range [6]: −3.70 to +2.85 ng/ml
- sPLA2 Change from baseline at week 4, Mean [6]: -2.46 ng/mL
- sPLA2 Change from baseline at week 4, Median [6]: -2.50 ng/mL
